Measured values from patent US20050238672A1, “Antifungal drug delivery” (priority 2004, published 2005).

Columns and labels:
[1] = solubility of terbinafine in benzyl alcohol; assay type: physicochemical; details: room temperature, with stirring
Method: In a preferred embodiment, the antifungal agent, terbinafine (an allylamine compound) used to treat infections of the nails and of the sub and peri-plantar regions of the foot (moccasin distribution) is dissolved in benzyl alcohol at room temperature with the aid of stirring. […] Two grams of terbinafine are therefore dissolved in 5 ml of benzyl alcohol. To this solution 85 ml of ethyl alcohol anhydrous and 10ml of distilled water are added. The final concentration of the active compound terbinafine, is 2% and that of the preferred carrier, benzyl alcohol 5%.

[2] = tested on: T. rubrum, T. mentagrophytes; assay: clinical study, topical application, onychomycosis; assay type: in vivo, human; details: after discontinuation of therapy
Text: A total of 10 patients, identified clinically and mycologically (T. rubrum, T. mentagrophytes) were all mycologically cured. Within two weeks of applications all patients with intractable, longstanding (of up to 15 years or more) moccasin distribution fungal dermatomycosis were clinically and mycologically cured. After 2 months of application all patients with severe onychomycosis, also of very long standing duration, appeared mycologically cured (negative cultures). […] Some nails continued to display dystrophic changes commensurate with the slow rate of nail growth and replacement. This persistent and possible prophylactic response is attributed to the unique solubility characteristics of the compounds in question and to the ability of the selected solvents to deliver the drug to the subungual or keratin rich regions where the fungi accumulate, and to persist at such sites in a microcrystalline form after precipitation.
Compositions according to the present invention can be applied by conventional methods, including the use of a small brush with a nail-lacquer bottle, a roll-on applicator, or by a squeeze bottle with a small opening. In the results cited above, a small brush with a nail-lacquer bottle was used.

Structure (SMILES): CN(C/C=C/C#CC(C)(C)C)Cc1cccc2ccccc12 [terbinafine]
- solubility in benzyl alcohol [1]: greater than 40 % w/vol
- recurrence upon discontinuation of therapy [2]: lack of any recurrence
